Data on 24 molecules can be found in patent publication US9198426B2, “Use of 5 pyridin-4-yl-1,3-thiazoles for controlling phytopathogenic fungi” (Bayer Intellectual Property GmbH, priority 2008, dated 2015).

Marks after values point to notes of the source that are not given here.

The data set in a line: physchem. It is filed as physicochemical.

In the case of `CCc1nc(-c2ccc(F)cc2)c(-c2ccnc(NC(=O)C3(C)CC3)c2)s1` [compound 95], the log p by setting is: (pH 2.7) 3.89^[b]; (pH 7.8) 4.03^[c];. The like results for `CCc1nc(-c2ccc(F)cc2)c(-c2ccnc(N(C(=O)OC(C)C)C(=O)OC(C)C)c2)s1` [compound 93] were, in that order, 4.5^[b] and 4.49^[c];.

As for `CCCCc1nc(-c2ccc(F)cc2)c(-c2ccncc2)s1` [compound 47], the log p (pH 2.7) was 3.11^[b]. For `CCc1nc(-c2ccc(F)cc2)c(-c2ccnc(NC(=O)OC(C)C)c2)s1` [compound 94], the log p reads like this: (pH 2.7) 4.08^[b]; (pH 7.8) 4.18^[c];. Consider `CCc1nc(-c2ccc(Cl)s2)c(-c2ccncc2)s1` [compound 42], for which the log p is 3.06^[b] (pH 2.7) and 3.88^[c]; (pH 7.8). On the same counts, the results for `CCc1nc(-c2ccc(F)cc2)c(-c2ccnc(NC(=O)CC(C)C)c2)s1` [compound 99] are 3.91^[b] and 4.04^[c];. For the molecule `CCc1nc(-c2ccc(F)cc2)c(-c2ccnc(NCc3ccccc3)c2)s1` [Ex. 59, N-Benzyl-4-[2-ethyl-4-(4-fluorophenyl)-1,3-thiazol-5-yl]pyridine-2-amine], the chromatographic logP (as a rule, lipophilicity estimated from chromatographic retention) (pH 2.7) was found to be 2.32. On the same count and under the same terms, the value for `CCc1nc(-c2ccc(F)cc2)c(-c2ccnc(N)c2)s1` [Ex. 35, 4-[2-Ethyl-4-(4-fluorophenyl)-1,3-thiazol-5-yl]pyridine-2-amine] was 1.29. `CCc1nc(-c2ccccc2)c(-c2ccnc(NC(=O)c3ccccc3)c2)s1` [compound 69]: the log p (pH 2.7) was 3.91^[b]. Take `CCc1nc(-c2ccc(F)cc2)c(-c2ccnc(NC(C)C)c2)s1` [compound 101]: the log p by setting is: (pH 2.7) 1.73^[b]; (pH 7.8) 4.11^[c];. In the case of `CCc1nc(-c2ccc(F)cc2)c(-c2ccnc(NC3CC3)c2)s1` [Ex. 72, N-Cyclopropyl-4-[2-ethyl-4-(4-fluorophenyl)-1,3-thiazol-5-yl]pyridine-2-amine], the chromatographic logP (pH 2.7) was determined as 1.74 and the chromatographic logP (pH 7.8) amounted to 3.61. Take `CCc1nc(-c2ccc(F)cc2)c(-c2ccnc(NC(=O)CCc3ccccc3)c2)s1` [compound 55]: under “pH 2.7”, the log p is 4.23^[b]. Still for that read-out and setting: with `CCc1nc(-c2cccs2)c(-c2ccncc2)s1` [compound 103] the figure was 1.94^[b]. On to `CCc1nc(-c2ccc(F)cc2)c(-c2ccnc(NCC(C)O)c2)s1` (centres unmarked) [compound 77], for which the log p reads like this: (pH 2.7) 1.44^[b]; (pH 7.8) 2.74^[c];. `CCc1nc(-c2ccc(F)cc2)c(-c2ccnc(NC(=O)CCl)c2)s1` [compound 98]: the log p is 3.29^[b] (pH 2.7) and 3.32^[c]; (pH 7.8). As to `Fc1ccc(-c2nc(C3CC3)sc2-c2ccncc2)cc1` [compound 89], the log p reads like this: (pH 2.7) 2.16^[b]; (pH 7.8) 3.32^[c];. For `CCc1nc(-c2ccc(F)cc2)c(-c2ccnc(NC(C)COC)c2)s1` (centres unmarked) [compound 70], under “pH 2.7”, the log p is 1.78^[b].

Turning to `CCc1nc(-c2ccc(F)cc2)c(-c2ccnc(NC(=O)c3ccc(OC)cc3)c2)s1` [compound 53], the log p (pH 2.7) was 4.04^[b]. For `CCc1nc(-c2ccc(F)cc2)c(-c2ccnc(NC(C)CO)c2)s1` (centres unmarked) [compound 71], the log p (pH 2.7) is 1.44^[b]. Regarding `CCc1nc(-c2ccc(F)cc2)c(-c2ccnc(NC(=O)C3CCCCC3)c2)s1` [compound 54], where the note is “pH 2.7”, the log p is 4.54^[b]. On to `CCc1nc(-c2ccc(C)c(C)c2)c(-c2ccncc2)s1` [compound 48], for which the log p (pH 2.7) is 2.49^[b]. For the molecule `CCc1nc(-c2ccc(F)cc2)c(-c2ccnc(N3CCCC3)c2)s1` [compound 64], the log p (pH 2.7) is 2^[b].

As to `Cc1nc(-c2ccc(F)cc2)c(-c2ccncc2)s1` [compound 44], the log p (pH 2.7) is 1.48^[b]. Regarding `CCc1nc(-c2ccc(F)cc2)c(-c2ccnc(NC(=O)OC)c2)s1` [compound 87], the log p reads like this: (pH 2.7) 3.14^[b]; (pH 7.8) 3.22^[c];.
